Results: patent US20220298160A1, “COMPOUNDS USEFUL IN HIV THERAPY” (priority 2019, published 2022)

How the values were obtained:
[1] = tested on: HIV pseudotyped virus (NL4-3 provirus), M184V; format: cell-based; details: PSV assay; U373 cells expressing human CD4 and CXCR4 or CCR5; luciferase signal after 3 days of culture
[2] = tested on: HIV pseudotyped virus (NL4-3 provirus), WT; test: PSV assay (pseudotyped virus assay), WT; details: Human immunodeficiency virus 1, NL43, in Homo sapiens, 72 h, read-out: WT IC50 (μM), PSV assay; U373 cells expressing human CD4 and CXCR4 or CCR5; luciferase signal after 3 days of culture
Text: A pseudotyped virus assay (PSV) was used to assess the potency of the HIV inhibitor. Replication defective virus was produced by co-transfection of a plasmid containing an NL4-3 provirus [containing a mutation in the envelope open reading frame (ORF) and a luciferase reporter gene replacing the nef ORF] and a CMV-promoter expression plasmid containing an ORF for various HIV gp160 envelope clones. The harvested virus was stored at −80 C in small aliquots and the titer of the virus measured to produce a robust signal for antiviral assays.
The PSV assay was performed by using U373 cells stably transformed to express human CD4, the primary receptor for HIV entry and either human CXCR4 or human CCR5 which are the co-receptors required for HIV entry as target cells for infection. […] This dose-range was applied to U373 cells and the pre-made pseudotyped virus added. The amount of luciferase signal produced after 3 days of culture was used to reflect the level of pseudotyped virus infection. An IC50, or the concentration of inhibitor required to reduce PSV infection by 50% from the infection containing no inhibitor was calculated. […] IC50 values were determined from a 10 point dose response curve using 3-4-fold serial dilution for each compound, which spans a concentration range >1000 fold.

Row | Compound | IC50 [1] | IC50 [2]
1 | C#C[C@]1(CO)O[C@@H](n2cnc3c(N)nc(F)nc32)C[C@@H]1OC(=O)NCC(=O)OC(C)(C)C [Example 26, tert-butyl ((((2R,3S,5R)-5-(6-amino-2-fluoro-9H-purin-9-yl)-2-ethynyl-2-(hydroxymethyl)tetrahydrofuran-3-yl)oxy)carbonyl)glycinate] | 17300 nM | 16.1 µM
2 | C#C[C@]1(CO)O[C@@H](n2cnc3c(N)nc(F)nc32)C[C@@H]1OC(=O)NCC(=O)OCCCCC [Example 27, pentyl ((((2R,3S,5R)-5-(6-amino-2-fluoro-9H-purin-9-yl)-2-ethynyl-2-(hydroxymethyl)tetrahydrofuran-3-yl)oxy)carbonyl)glycinate] | > 25000 nM | > 25 µM
3 | C#C[C@]1(CO)O[C@@H](n2cnc3c(N)nc(F)nc32)C[C@@H]1OC(=O)OC(COC(C)=O)COC(C)=O [Example 28, 2-(((((2R,3S,5R)-5-(6-amino-2-fluoro-9H-purin-9-yl)-2-ethynyl-2-(hydroxymethyl)tetrahydrofuran-3-yl)oxy)carbonyl)oxy)propane-1,3-diyl diacetate] | 39.2 nM | 0.0106 µM
4 | C#C[C@]1(CO)O[C@@H](n2cnc3c(N)nc(F)nc32)C[C@@H]1OC(=O)OC(COC(=O)CCCC)COC(=O)CCCC [Example 29, 2-(((((2R,3S,5R)-5-(6-amino-2-fluoro-9H-purin-9-yl)-2-ethynyl-2-(hydroxymethyl)tetrahydrofuran-3-yl)oxy)carbonyl)oxy)propane-1,3-diyl dipentanoate] | 28.3 nM | 0.0077 µM
5 | C#C[C@]1(CO)O[C@@H](n2cnc3c(N)nc(F)nc32)C[C@@H]1OC(=O)OC(COC(=O)CCCCCCCC)COC(=O)CCCCCCCC [Example 30, 2-(((((2R,3S,5R)-5-(6-amino-2-fluoro-9H-purin-9-yl)-2-ethynyl-2-(hydroxymethyl)tetrahydrofuran-3-yl)oxy)carbonyl)oxy)propane-1,3-diyl dinonanoate] | 29.3 nM | 0.0077 µM
6 | C#C[C@]1(CO)O[C@@H](n2cnc3c(N)nc(F)nc32)C[C@@H]1OC(=O)OC1COC(=O)CCCCCCCCCCCC(=O)OC1 [Example 31, (2R,3S,5R)-5-(6-amino-2-fluoro-9H-purin-9-yl)-2-ethynyl-2-(hydroxymethyl)tetrahydrofuran-3-yl (6,18-dioxo-1,5-dioxacyclooctadecan-3-yl) carbonate] | 47.8 nM | 0.0151 µM
7 | C#C[C@]1(CO)O[C@@H](n2cnc3c(NC(=O)OC(COC(=O)CCCC)COC(=O)CCCC)nc(F)nc32)C[C@@H]1O [Example 32, 2-(((9-((2R,4S,5R)-5-ethynyl-4-hydroxy-5-(hydroxymethyl)tetrahydrofuran-2-yl)-2-fluoro-9H-purin-6-yl)carbamoyl)oxy)propane-1,3-diyl dipentanoate] | 26.9 nM | 0.0075 µM
8 | C#C[C@]1(CO)O[C@@H](n2cnc3c(NC(=O)OC(COC(=O)CCCCCCCC)COC(=O)CCCCCCCC)nc(F)nc32)C[C@@H]1O [Example 33, 2-(((9-((2R,4S,5R)-5-ethynyl-4-hydroxy-5-(hydroxymethyl)tetrahydrofuran-2-yl)-2-fluoro-9H-purin-6-yl)carbamoyl)oxy)propane-1,3-diyl dinonanoate] | 24.3 nM | 0.0054 µM
9 | C#C[C@]1(CO)O[C@@H](n2cnc3c(NC(=O)OC4COC(=O)CCCCCCCCCCCC(=O)OC4)nc(F)nc32)C[C@@H]1O [Example 34, 6,18-dioxo-1,5-dioxacyclooctadecan-3-yl (9-((2R,4S,5R)-5-ethynyl-4-hydroxy-5-(hydroxymethyl)tetrahydrofuran-2-yl)-2-fluoro-9H-purin-6-yl)carbamate] | 67.8 nM | 0.0132 µM
